The source made the active and inactive calls. No rule for the calls is given here.
Test system: CCRIS mutagenicity, Ames/micronucleus/aberration tests
Experiment: CCRIS mutagenicity studies

With O the mutagenic call (End Point: In vitro chromosomal aberrations, Test System: D824 human dental pulp cells, Metabolic Activation: None) was “inactive; negative”, the mutagenic call (End Point: In vitro chromosomal aberrations, Test System: D824 human dental pulp cells, Metabolic Activation: Rat, Liver, Postmitochondrial supernate (5%)) was “inactive; negative” and the mutagenic call (Test System: AMES SALMONELLA TYPHIMURIUM, Strain/Indicator: TA97, Metabolic Activation: HAMSTER, LIVER, S-9, AROCLOR 1254 (10 OR 30%), Method: PREINCUBATION) was “inactive; negative”. The mutagenic call (Test System: AMES SALMONELLA TYPHIMURIUM, Strain/Indicator: TA97, Metabolic Activation: NONE, Method: PREINCUBATION) was “inactive; negative”, the mutagenic call (Test System: AMES SALMONELLA TYPHIMURIUM, Strain/Indicator: TA97, Metabolic Activation: RAT, LIVER, S-9, AROCLOR 1254 (10 OR 30%), Method: PREINCUBATION) was “inactive; negative” and the mutagenic call (Test System: AMES SALMONELLA TYPHIMURIUM, Strain/Indicator: TA97, Metabolic Activation: RAT, LIVER, S-9, AROCLOR 1254, Method: PREINCUBATION) was “inactive; negative”. The mutagenic call (Test System: AMES SALMONELLA TYPHIMURIUM, Strain/Indicator: TA98, Metabolic Activation: HAMSTER, LIVER, S-9, AROCLOR 1254 (10 OR 30%), Method: PREINCUBATION) was “inactive; negative”, the mutagenic call (Test System: AMES SALMONELLA TYPHIMURIUM, Strain/Indicator: TA98, Metabolic Activation: NONE, Method: PREINCUBATION) was “inactive; negative” and the mutagenic call (Test System: AMES SALMONELLA TYPHIMURIUM, Strain/Indicator: TA98, Metabolic Activation: RAT LIVER S-9, PHENOBARBITAL AND BETA-NAPHTHOFLAVONE, Method: PREINCUBATION) was “inactive; negative”. For the same compound, the mutagenic call (Test System: AMES SALMONELLA TYPHIMURIUM, Strain/Indicator: TA98, Metabolic Activation: RAT, LIVER, S-9, AROCLOR 1254 (10 OR 30%), Method: PREINCUBATION) was “inactive; negative”, the mutagenic call (Test System: AMES SALMONELLA TYPHIMURIUM, Strain/Indicator: TA98, Metabolic Activation: RAT, LIVER, S-9, PHENOBARBITAL AND BETA-NAPHTHOFLAVONE, Method: PREINCUBATION) was “inactive; negative” and the mutagenic call (Test System: AMES SALMONELLA TYPHIMURIUM, Strain/Indicator: TA100, Metabolic Activation: HAMSTER, LIVER, S-9, AROCLOR 1254 (10 OR 30%), Method: PREINCUBATION) was “inactive; negative”. The mutagenic call (Test System: AMES SALMONELLA TYPHIMURIUM, Strain/Indicator: TA100, Metabolic Activation: NONE, Method: PREINCUBATION) was “inactive; negative”, the mutagenic call (Test System: AMES SALMONELLA TYPHIMURIUM, Strain/Indicator: TA100, Metabolic Activation: RAT LIVER S-9, PHENOBARBITAL AND BETA-NAPHTHOFLAVONE, Method: PREINCUBATION) was “inactive; negative” and the mutagenic call (Test System: AMES SALMONELLA TYPHIMURIUM, Strain/Indicator: TA100, Metabolic Activation: RAT, LIVER, S-9, AROCLOR 1254 (10 OR 30%), Method: PREINCUBATION) was “inactive; negative”. For the same compound, the mutagenic call (Test System: AMES SALMONELLA TYPHIMURIUM, Strain/Indicator: TA100, Metabolic Activation: RAT, LIVER, S-9, PHENOBARBITAL AND BETA-NAPHTHOFLAVONE, Method: PREINCUBATION) was “inactive; negative”, the mutagenic call (Test System: AMES SALMONELLA TYPHIMURIUM, Strain/Indicator: TA102, Metabolic Activation: NONE, Method: PREINCUBATION) was “inactive; negative” and the mutagenic call (Test System: AMES SALMONELLA TYPHIMURIUM, Strain/Indicator: TA102, Metabolic Activation: RAT, LIVER, S-9, AROCLOR 1254, Method: PREINCUBATION) was “inactive; negative”. The mutagenic call (Test System: AMES SALMONELLA TYPHIMURIUM, Strain/Indicator: TA104, Metabolic Activation: NONE, Method: PREINCUBATION) was “inactive; negative”, the mutagenic call (Test System: AMES SALMONELLA TYPHIMURIUM, Strain/Indicator: TA104, Metabolic Activation: RAT, LIVER, S-9, SODIUM PHENOBARBITAL AND 5,6-BENZOFLAVONE, Method: PREINCUBATION) was “inactive; negative” and the mutagenic call (Test System: AMES SALMONELLA TYPHIMURIUM, Strain/Indicator: TA1535, Metabolic Activation: HAMSTER, LIVER, S-9, AROCLOR 1254 (10 OR 30%), Method: PREINCUBATION) was “inactive; negative”. The mutagenic call (Test System: AMES SALMONELLA TYPHIMURIUM, Strain/Indicator: TA1535, Metabolic Activation: NONE, Method: PREINCUBATION) was “inactive; negative”, the mutagenic call (Test System: AMES SALMONELLA TYPHIMURIUM, Strain/Indicator: TA1535, Metabolic Activation: RAT LIVER S-9, PHENOBARBITAL AND BETA-NAPHTHOFLAVONE, Method: PREINCUBATION) was “inactive; negative” and the mutagenic call (Test System: AMES SALMONELLA TYPHIMURIUM, Strain/Indicator: TA1535, Metabolic Activation: RAT, LIVER, S-9, AROCLOR 1254 (10 OR 30%), Method: PREINCUBATION) was “inactive; negative”. For the same compound, the mutagenic call (Test System: AMES SALMONELLA TYPHIMURIUM, Strain/Indicator: TA1535, Metabolic Activation: RAT, LIVER, S-9, PHENOBARBITAL AND BETA-NAPHTHOFLAVONE, Method: PREINCUBATION) was “inactive; negative”, the mutagenic call (Test System: AMES SALMONELLA TYPHIMURIUM, Strain/Indicator: TA1537, Metabolic Activation: HAMSTER, LIVER, S-9, AROCLOR 1254 (30%), Method: PREINCUBATION) was “inactive; negative” and the mutagenic call (Test System: AMES SALMONELLA TYPHIMURIUM, Strain/Indicator: TA1537, Metabolic Activation: NONE, Method: PREINCUBATION) was “inactive; negative”. The mutagenic call (Test System: AMES SALMONELLA TYPHIMURIUM, Strain/Indicator: TA1537, Metabolic Activation: RAT LIVER S-9, PHENOBARBITAL AND BETA-NAPHTHOFLAVONE, Method: PREINCUBATION) was “inactive; negative”, the mutagenic call (Test System: AMES SALMONELLA TYPHIMURIUM, Strain/Indicator: TA1537, Metabolic Activation: RAT, LIVER, S-9, AROCLOR 1254 (30%), Method: PREINCUBATION) was “inactive; negative” and the mutagenic call (Test System: AMES SALMONELLA TYPHIMURIUM, Strain/Indicator: TA1537, Metabolic Activation: RAT, LIVER, S-9, PHENOBARBITAL AND BETA-NAPHTHOFLAVONE, Method: PREINCUBATION) was “inactive; negative”. For the same compound, the mutagenic call (Test System: AMES SALMONELLA TYPHIMURIUM, Strain/Indicator: TA1538, Metabolic Activation: NONE, Method: PREINCUBATION) was “inactive; negative”, the mutagenic call (Test System: AMES SALMONELLA TYPHIMURIUM, Strain/Indicator: TA1538, Metabolic Activation: RAT LIVER S-9, PHENOBARBITAL AND BETA-NAPHTHOFLAVONE, Method: PREINCUBATION) was “inactive; negative” and the mutagenic call (Test System: E. COLI, Strain/Indicator: WP2UVRA/PKM101, Metabolic Activation: NONE, Method: PREINCUBATION) was “inactive; negative”. The mutagenic call (Test System: E. COLI, Strain/Indicator: WP2UVRA/PKM101, Metabolic Activation: RAT, LIVER, S-9, SODIUM PHENOBARBITAL AND 5,6-BENZOFLAVONE, Method: PREINCUBATION) was “inactive; negative”, the mutagenic call (Test System: E. COLI, Strain/Indicator: WP2UVRA, Metabolic Activation: NONE, Method: PREINCUBATION) was “inactive; negative” and the mutagenic call (Test System: E. COLI, Strain/Indicator: WP2UVRA, Metabolic Activation: RAT, LIVER, S-9, SODIUM PHENOBARBITAL AND 5,6-BENZOFLAVONE, Method: PREINCUBATION) was “inactive; negative”. For the same compound, the mutagenic call (Test System: E.COLI, Strain/Indicator: WP2UVRA, Metabolic Activation: NONE, Method: PREINCUBATION) was “inactive; negative”, the mutagenic call (Test System: E.COLI, Strain/Indicator: WP2UVRA, Metabolic Activation: RAT LIVER S-9, PHENOBARBITAL AND BETA-NAPHTHOFLAVONE, Method: PREINCUBATION) was “inactive; negative” and the mutagenic call (Test System: MOUSE LYMPHOMA, Strain/Indicator: L5178Y (TK+/TK-), Metabolic Activation: NONE, Method: SUSPENSION/PLATE) was “inactive; negative”. For the same compound, the mutagenic call (Test System: MOUSE LYMPHOMA, Strain/Indicator: L5178Y (TK+/TK-), Metabolic Activation: RAT, LIVER, S-9, AROCLOR 1254, Method: SUSPENSION/PLATE) was “active; positive”.

With C1=c2ccccc2=C2Cc3ccccc3C3=C4OC4=C1C32 (configuration not stated) the mutagenic call (Test System: AMES SALMONELLA TYPHIMURIUM, Strain/Indicator: TA98, Metabolic Activation: NONE, Method: STANDARD PLATE) was “active; positive” and the mutagenic call (Test System: AMES SALMONELLA TYPHIMURIUM, Strain/Indicator: TA98, Metabolic Activation: RAT, LIVER, S-9, AROCLOR 1254, Method: STANDARD PLATE) was “active; positive”.
